Experimental findings from patent US12465607B2, “ALK inhibitors for treatment of ALK-negative cancer and plasma cell-mediated diseases” (UNIVERSITETET I OSLO, priority 2019, dated 2025) are described below.

One data set has as its system multiple myeloma cells. As to the kind of experiment: Cytotoxic activity against multiple myeloma cells (FIG. 4, L363, AMO-1 and bortezomib-resistant clones). It counts as cell-based, human. As to conditions: FIG. 4, 24 hr treatment. How it is done: (§1) The Results are the means of 3 independent experiments. Note the concentration-dependent reduction of viability of myeloma cells.
(§2) The cell lines used were the human multiple myeloma cell lines L363 (DSMZ catalogue number ACC 49), AMO-1 (DSMZ catalogue number ACC 538) and ARH-77 (ATCC CRL-1621).
(§3) Multiple myeloma cell lines were maintained in RPMI-1640 culture medium (Sigma-Aldrich, Buchs, Switzerland) supplemented with 10% heat-inactivated fetal bovine serum (FBS), 100 μg/ml streptomycin and 100 U/ml penicillin/streptomycin (Sigma-Aldrich, Buchs, Switzerland). The bortezomib-resistant cell lines were established and maintained from their parental cell line by continuous drug exposure>12 months to their parental cell lines (Soriano et al, Leukemia 30: 2198-2207, 2016).
(§4) The viability of the cells was determined 24 hr post treatment using Cell Counting Kit-8 (CCK-8; MedChemExpress, NJ, USA) according to the manufacturer's instructions.

The next data set concerns AMO-1. As to the kind of experiment: Myeloma cell line viability, CCK-8, 24 hr. It counts as cell-based. The note with it: Homo sapiens, AMO1; AMO-1, 24 hr treatment. How it is done: as §1, §2, §3, §4
The test system of the next data set is AMO-1-BTZ. The experiment in a line: Myeloma cell line viability, CCK-8, 24 hr. The note with it: Homo sapiens, 24 hr treatment. It counts as cell-based. How it is done: as §1, §2, §3, §4
For another data set, the system named is L363-BTZ. The experiment in a line: Myeloma cell line viability, CCK-8, 24 hr. It counts as cell-based, human. As to conditions: Homo sapiens; L363-BTZ, 24 hr treatment. How it is done: as §1, §2, §3, §4
For a further data set, the system named is L363. As to the kind of experiment: Myeloma cell line viability, CCK-8, 24 hr. As to conditions: Homo sapiens, L-363; L363, 24 hr treatment. It counts as cell-based, human. How it is done: as §1, §2, §3, §4
The subject of data set [1] is human L363-BTZ (bortezomib-resistant) myeloma cells. As to the kind of experiment: Intrafemoral L363-BTZ luciferase xenograft in NSG mice. It counts as in vivo. As to conditions: 7 days treatment from day 10; crizotinib 50 mg/kg orally daily; bortezomib 1 mg/kg i.v. twice. How it is done:
In this figure, immunocompromised NSG mice were intrafemorally injected with human L363-BTZ (bortezomib-resistant) myeloma cells. The cells were equipped with luciferase for in vivo monitoring of disease progression. After 10 days, mice were treated with bortezomib i.v. twice over a 7 day period and with crizotinib orally every day over the 7 day period. The images on the left show examples of tumour load in the different groups at days 4 and 7 of treatment (days 14 and 17 post tumour inoculation), and the graph on the right depicts the average luciferase signal for each mouse in each cohort (n=4) normalised to day 0 of the treatment (day 10 post tumour inoculation). Statistical significance between the groups was assessed with two-way ANOVA and between the time-points using one-way ANOVA with Tukey post-test.
NSG (NOD-scid IL2Rgamma^null) mice were obtained from The Jackson Laboratory (No. 005557, CA, USA) and kept in isolated ventilated cages with food ad libitum. Age matched (6-8 weeks old) mice were injected with 0.5×10^5 L363-BTZ_Luc+_TdTomato+ multiple myeloma cells (equipped with luciferase vector for monitoring, obtained from Addgene: #72486) into the right femur. Tumour growth was monitored twice over the week following luciferin injection (150 mg/kg, obtained from BioVision, CA, USA). […]

A further data set has as its system CLL cells. The experiment in a line: Viability of activated CLL cells from patients, CellTiter-Glo 72 h (IC50, DSS). It counts as cell-based, human. As to conditions: CLL cells from 12 new patients. How it is done: CLL cells from patients were stimulated by adherent murine L cells expressing CD40L, BAFF and April for 24 h. The L cells were then removed by immuno-magnetic separation. Washed CLL cells were plated into 384-well plate format (10,000 cells/well) and tested against crizotinib at 5 concentrations in 10-fold dilutions (plates dispensed by an Echo acoustic dispenser, LabCyte Inc., San Jose, CA, USA). The plate was incubated in a humidified environment at 37° C. and 5% CO2. Cell viability was determined after 72 h using the CellTiter-Glo (Promega, Madison, WI, USA) ATP assay according to the manufacturer's instructions and using an Envision 2102 Multilabel reader (PerkinElmer, Shelton, CT, USA). Relative percentage cell viability was calculated by normalising luminescence units for each well to negative (DMSO 0.1%) and positive (100 μM BzCl) control wells. Curve fitting was conducted to obtain IC50 values.
Quantitative scoring of differential drug sensitivity for individual drugs was calculated as drug sensitivity scores (DSS values, Yadav et al., Scientific Reports 4: 5193, 2014). DSS values were calculated for integrated multiple dose-response relationships in high-throughput compound testing as shown.

Another data set has as its target T1, LTK (Homo sapiens, UniProt P29376).
T1 construct: expressed in transfected cells; host or cells: HeLa cells
As to the kind of experiment: LTK inhibition: immunoblot of phosphorylated LTK in cells expressing LTK. It counts as cell-based. The note with it: FIG. 5A: HeLa cells expressing flag-tagged LTK, 1 μM, 30 minutes. How it is done: (§5) Cells were washed twice with PBS and collected in lysis buffer (50 mM Tris-HCl, pH7.4; 1 mM EDTA, 100 mM NaCl, 0.1% SDS and 1% NP-40) supplemented with proteinase and phosphatase inhibitor (Pierce Protease and Phosphatase Inhibitor Mini Tablets, EDTA-free). Lysates were incubated on ice for 10 minutes followed by clearing centrifugation at 20,000×g at 4° C. for 10 min. Supernatants were transferred into fresh tubes and reducing loading buffer was added. Lysates were subjected to SDS-PAGE and transferred onto a nitrocellulose membrane using semi-dry transfer. The membrane was blocked (in ROTI buffer (Roth) or 5% milk in PBS with 0.1% tween) and probed with the appropriate primary antibodies. Subsequently membranes were incubated with horseradish peroxidase-conjugated secondary antibody. Immunoblots were developed using a chemiluminescence reagent (ECL clarity, BioRad) and imaged using ChemiDoc (BioRad).
Background: Immunoblotting shows a protein as a band on a membrane.

The next data set has as its system AMO-1 cells. As to the kind of experiment: IgA secretion by AMO-1 cells, ELISA of supernatant. It counts as cell-based, human. As to conditions: 3 h. How it is done: (§6) In A, HeLa cells expressing flag-tagged LTK were treated with 1 μM of crizotinib or ceritinib for 30 minutes. Afterwards, cells were lysed and immunoblotted against phosphorylated LTK, which is used as a surrogate for the active form of LTK. […] B, HeLa cells were treated with 1 μM ceritinib for 30 minutes followed by fixation and staining for Sec31A to label ERES. Cells were imaged by confocal microscopy and ERES were counted using ImageJ. C, HeLa cells stably expressing mCherry-tagged mannosidase-II RUSH reporter. Cells were treated with biotin to release the reporter from the ER. After 20 min, a time point where most of the reporter has reached the Golgi, cells were fixed and immunostained for GM130 to label the Golgi apparatus. […] D, IgA secreting AMO-1 cells were treated for 3 h with the indicated doses of crizotinib and the amount of IgA in cell supernatant was determined by ELISA.
Right: Secretion of Ig is reduced by ceritinib. The plasma cell line AMO-1 was washed and added to wells (10^6 cells/well) in the presence of titred ceritinib for 3 h. Supernatants were assayed for IgA secreted by the AMO-1 cells by use of the Human IgA ELISA Kit (Abcam, Cambridge, UK).
1×10^6/ml IgA-secreting AMO-1 cells were seeded in fresh medium with increasing doses of compounds of interest for 3 hr. […]
Background: In an ELISA, binding on a coated surface is turned into a signal by an enzyme label.

A further data set concerns plasma cells. As to the kind of experiment: Viability of in vitro-generated IRF4/BLIMP1 double positive end stage plasma cells. It counts as cell-based. The note with it: Homo sapiens, B-cell, 120 h; B-cells stimulated 5 days, inhibitor day 5-7. The text has this:
Negatively selected normal B-cells from blood bank donors were stimulated with sCD40L, IL-21, IL-4 for 5 days. This protocol allows generation of 10-20% end differentiated plasma cells that express IRF4 and BLIMP1. From day 5-7, cells were exposed to titred crizotinib in A, or ceritinib in B.
In A and B, IRF4 vs BLIMP1 in gated CD19^+ B cells is shown. IRF4 and BLIMP1 double positive cells represent end stage plasma cells. Such plasma cells are gated (blue elliptic region) and percent plasma cells are shown. The conditions without inhibitor (0) and with linear Alk-inhibitor (crizotinib, A; ceritinib, B) are shown for concentrations 0.01 μM, 0.1 μM, 1 μM, 10 μM and 100 μM.

The next data set has as its system HeLa cells. The experiment in a line: ER-to-Golgi trafficking in HeLa cells (ERES staining, mannosidase-II RUSH reporter). It counts as cell-based. The note with it: RUSH reporter 20 min after biotin. How it is done:
as §6

In data set [2] the test system is Hepatocellular carcinoma cells (HepG2). The experiment in a line: Apoptosis (cleaved caspase 3 immunoblot) in HepG2 cells with doxorubicin. It counts as cell-based. As to conditions: 5 μM doxorubicin alone, 24 h. How it is done: In B, Hepatocellular carcinoma cells (HepG2) were treated with DMSO (untreated) or with increasing concentrations (1, 2 and 5 μM) of doxorubicin for 24 h and apoptosis was assessed by immunoblotting for cleaved caspase 3. […] Cells were also treated with the same concentrations of doxorubicin in the presence of 1 μM crizotinib for 24 h.
as §5

Entries after “also recorded” stand apart in the source; their conditions may differ.

T1 sequence (P29376 17-864): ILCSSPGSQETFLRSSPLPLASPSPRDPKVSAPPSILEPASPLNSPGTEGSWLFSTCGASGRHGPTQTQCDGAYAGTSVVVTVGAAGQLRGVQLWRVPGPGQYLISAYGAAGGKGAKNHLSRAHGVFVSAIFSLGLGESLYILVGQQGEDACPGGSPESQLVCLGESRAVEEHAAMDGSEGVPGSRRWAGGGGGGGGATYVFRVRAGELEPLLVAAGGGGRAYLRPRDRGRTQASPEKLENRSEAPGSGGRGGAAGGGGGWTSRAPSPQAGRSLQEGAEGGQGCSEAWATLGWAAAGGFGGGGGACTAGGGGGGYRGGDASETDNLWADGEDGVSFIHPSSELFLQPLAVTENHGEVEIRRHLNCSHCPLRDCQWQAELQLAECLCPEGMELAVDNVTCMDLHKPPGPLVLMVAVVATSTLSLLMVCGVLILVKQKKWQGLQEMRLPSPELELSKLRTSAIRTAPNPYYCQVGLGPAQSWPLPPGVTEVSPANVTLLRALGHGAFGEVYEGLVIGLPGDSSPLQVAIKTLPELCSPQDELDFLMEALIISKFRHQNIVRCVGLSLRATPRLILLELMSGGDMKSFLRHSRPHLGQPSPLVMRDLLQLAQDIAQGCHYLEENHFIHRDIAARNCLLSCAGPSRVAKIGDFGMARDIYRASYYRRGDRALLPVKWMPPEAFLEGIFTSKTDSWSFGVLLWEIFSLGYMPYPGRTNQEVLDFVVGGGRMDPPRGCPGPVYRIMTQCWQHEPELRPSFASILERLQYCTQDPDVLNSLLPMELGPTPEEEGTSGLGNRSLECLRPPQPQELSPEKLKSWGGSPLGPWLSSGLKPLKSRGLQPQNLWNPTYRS

As a reminder, the IC50 is the point on the concentration scale where inhibition reaches its midpoint. Low values mean greater potency in that assay, high ones weaker potency in that assay. Consider `CCc1cc2c(cc1N1CCC(N3CCOCC3)CC1)C(C)(C)c1[nH]c3cc(C#N)ccc3c1C2=O` [alectinib, 9-ethyl-6,6-dimethyl-8-(4-morpholin-4-ylpiperidin-1-yl)-11-oxo-5H-benzo[b]carbazole-3-carbonitrile], for which, in the data set on multiple myeloma cells, the “cytotoxic activity against multiple myeloma cells” value is reported as “cytotoxic activity”. Besides, the IC50 is 13300 nM in the data set with AMO-1, 17600 nM in the data set on AMO-1-BTZ, 6220 nM in the data set on L363-BTZ and 6120 nM in the data set on L363.
`CC(C)C[C@H](NC(=O)[C@H](Cc1ccccc1)NC(=O)c1cnccn1)B(O)O` [bortezomib]: the “tumour burden (luciferase signal)” value in data set [1] is listed as “confirmed proteasome inhibitor resistance”.
For the compound `COc1cc(N2CCC(N3CCN(C)CC3)CC2)ccc1Nc1ncc(Cl)c(Nc2ccccc2P(C)(C)=O)n1` [brigatinib, 5-chloro-4-N-(2-dimethylphosphorylphenyl)-2-N-[2-methoxy-4-[4-(4-methylpiperazin-1-yl)piperidin-1-yl]phenyl]pyrimidine-2,4-diamine], the “patients with susceptible CLL cells, cut-off DSS=10” value (from here on “patients with susceptible CLL cells”) in the data set on CLL cells is 4/12.
Regarding `Cc1cc(Nc2ncc(Cl)c(Nc3ccccc3S(=O)(=O)C(C)C)n2)c(OC(C)C)cc1C1CCNCC1` [ceritinib, 5-chloro-2-N-(5-methyl-4-piperidin-4-yl-2-propan-2-yloxyphenyl)-4-N-(2-propan-2-ylsulfonylphenyl)pyrimidine-2,4-diamine], the “cytotoxic activity against multiple myeloma cells” value in the data set on multiple myeloma cells is “cytotoxic activity”. The IC50 was 2090 nM in the data set with AMO-1; 2770 nM in the data set with AMO-1-BTZ; under 1 nM with plasma cells; 790 nM with L363-BTZ; 1030 nM in the data set on L363. Moreover, the “inhibition of LTK” value on LTK was “inhibit LTK”. Besides, in the data set on AMO-1 cells, the “immunoglobulin (IgA) secretion” value was “reduced; also recorded: inhibits immunoglobulin secretion”. The “patients with susceptible CLL cells” value in the data set on CLL cells was 11/12. Further, the ER-to-Golgi trafficking result in the data set with HeLa cells is “inhibits ER-to-Golgi trafficking”.
With `COc1cccc2c1C(=O)c1c(O)c3c(c(O)c1C2=O)C[C@@](O)(C(=O)CO)C[C@@H]3O[C@H]1C[C@H](N)[C@H](O)[C@H](C)O1` [doxorubicin], in data set [2], the “cell death (cleaved caspase 3)” value is “only weakly induces cell death”.
`C[C@@H]1CN(C(=O)c2ccc(NC(=O)c3cc(O[C@H](C)c4c(Cl)ccc(F)c4Cl)c(N)nn3)cc2)C[C@H](C)N1` [ensartinib, 6-amino-5-[(1R)-1-(2,6-dichloro-3-fluorophenyl)ethoxy]-N-[4-[(3R,5S)-3,5-dimethylpiperazine-1-carbonyl]phenyl]pyridazine-3-carboxamide]: in the data set on multiple myeloma cells, the “cytotoxic activity against multiple myeloma cells” value is recorded as “cytotoxic activity”. Moreover, in the data set with CLL cells, the “patients with susceptible CLL cells” value was 11/12.
With `CN1CCN(c2ccc(C(=O)Nc3n[nH]c4ccc(Cc5cc(F)cc(F)c5)cc34)c(NC3CCOCC3)c2)CC1` [entrectinib, N-[5-[(3,5-difluorophenyl)methyl]-1H-indazol-3-yl]-4-(4-methylpiperazin-1-yl)-2-(oxan-4-ylamino)benzamide], the “cytotoxic activity against multiple myeloma cells” value with multiple myeloma cells is “cytotoxic activity”. In addition, in the data set with CLL cells, the “patients with susceptible CLL cells” value was 12/12.
Regarding `C[C@H]1Oc2cc(cnc2N)-c2c(nn(C)c2C#N)CN(C)C(=O)c2ccc(F)cc21` [lorlatinib], the “cytotoxic activity against multiple myeloma cells” value in the data set on multiple myeloma cells is “did not efficiently kill myeloma cells”. Also, the “patients with susceptible CLL cells” value with CLL cells is recorded as 0/12.
